Where two headings read alike, the source gives them in different places. Square brackets hold non-standard residues; d marks the D form. Peptide text beside a SMILES is read from it. * marks the point of attachment. X1 = Cc1ccc(Nc2ncc3c(n2)N(C)C(=O)N(c2cc(C(=O)*)ccc2C)C3)cn1; Chg = N[C@H](C(=O)O)C1CCCCC1; Nva = CCC[C@H](N)C(=O)O; Aib = CC(C)(N)C(=O)O
How the values were obtained:
Assay type in all cases: biochemical
[1] = target: p38a/MAPK14 (Homo sapiens, UniProt Q16539); experiment: IC50 inhibitory activity against p38a/MAPK14 kinase
Description: (§1) IC50 values were calculated by measuring the inhibitory activity against LCK, c-Src, p38a/MAPK14, ABL1, DDR1 and FGR kinases of the compounds of the present invention.

[2] = target: ABL1 (Homo sapiens, UniProt P00519); experiment: IC50 inhibitory activity against ABL1 kinase
Description: as §1

[3] = target: ABL1 (T315I) (Homo sapiens, UniProt P00519, T315I); experiment: IC50 inhibitory activity against ABL1 (T315I) kinase
Description: as §1

[4] = target: LCK (Homo sapiens, UniProt P06239); experiment: IC50 inhibitory activity against LCK kinase
Description: as §1

[5] = target: c-Src (Homo sapiens, UniProt P12931); experiment: IC50 inhibitory activity against c-Src kinase
Description: as §1

Chain of p38a/MAPK14 (Q16539 whole entry): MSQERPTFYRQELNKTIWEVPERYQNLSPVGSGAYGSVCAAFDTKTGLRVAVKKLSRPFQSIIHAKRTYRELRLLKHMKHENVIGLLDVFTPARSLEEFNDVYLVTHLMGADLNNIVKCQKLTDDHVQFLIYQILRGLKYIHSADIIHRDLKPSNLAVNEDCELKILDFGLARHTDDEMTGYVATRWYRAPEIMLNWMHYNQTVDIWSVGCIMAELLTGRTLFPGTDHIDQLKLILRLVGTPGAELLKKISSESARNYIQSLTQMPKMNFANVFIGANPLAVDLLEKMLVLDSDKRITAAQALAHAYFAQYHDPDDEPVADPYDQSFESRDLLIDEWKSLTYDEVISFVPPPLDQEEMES
Chain of c-Src (P12931 whole entry): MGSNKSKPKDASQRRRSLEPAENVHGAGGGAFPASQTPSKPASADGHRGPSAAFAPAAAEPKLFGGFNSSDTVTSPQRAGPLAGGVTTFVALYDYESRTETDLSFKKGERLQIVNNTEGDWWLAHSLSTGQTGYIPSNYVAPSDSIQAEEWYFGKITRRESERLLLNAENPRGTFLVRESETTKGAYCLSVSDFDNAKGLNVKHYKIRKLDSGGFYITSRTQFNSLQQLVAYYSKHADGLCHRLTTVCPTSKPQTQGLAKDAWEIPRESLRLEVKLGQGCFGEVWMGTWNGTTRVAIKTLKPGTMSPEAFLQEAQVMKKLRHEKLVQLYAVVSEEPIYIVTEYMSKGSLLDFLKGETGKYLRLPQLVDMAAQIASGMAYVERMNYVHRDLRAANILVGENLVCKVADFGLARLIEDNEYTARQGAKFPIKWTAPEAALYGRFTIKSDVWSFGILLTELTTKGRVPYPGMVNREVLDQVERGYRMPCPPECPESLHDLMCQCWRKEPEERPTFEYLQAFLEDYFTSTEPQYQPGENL
Chain of LCK (P06239 whole entry): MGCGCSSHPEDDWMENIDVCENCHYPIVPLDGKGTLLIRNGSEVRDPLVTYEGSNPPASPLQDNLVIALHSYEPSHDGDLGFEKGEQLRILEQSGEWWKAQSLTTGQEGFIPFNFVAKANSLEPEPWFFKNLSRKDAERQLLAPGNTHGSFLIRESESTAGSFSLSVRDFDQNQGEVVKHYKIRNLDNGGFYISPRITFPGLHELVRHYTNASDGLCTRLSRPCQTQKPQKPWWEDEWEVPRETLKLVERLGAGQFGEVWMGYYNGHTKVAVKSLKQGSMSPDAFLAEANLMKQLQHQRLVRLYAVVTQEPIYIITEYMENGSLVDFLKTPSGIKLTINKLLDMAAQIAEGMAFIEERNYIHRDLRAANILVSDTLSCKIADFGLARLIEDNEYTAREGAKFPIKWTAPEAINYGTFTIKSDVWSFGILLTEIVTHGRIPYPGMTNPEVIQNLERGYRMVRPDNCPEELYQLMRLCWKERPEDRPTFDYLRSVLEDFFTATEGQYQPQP

| SMILES | IC50 ([1]; read-out: p38a/MAPK14 IC50) | IC50 ([2]; read-out: ABL1 IC50) | IC50 ([4]; read-out: LCK IC50) | IC50 ([5]; read-out: c-Src IC50) | IC50 ([3]; read-out: ABL1 (T315I) IC50) | also measured |
| --- | --- | --- | --- | --- | --- | --- |
| Cc1ccc(Nc2ncc3c(n2)N(C)C(=O)N(c2cc(NC(=O)[C@H](CC(C)C)NC(=O)c4ccc([N+](=O)[O-])c(OCC(C)C)c4)ccc2C)C3)cn1 [Example 54, (S)-3-isobutoxy-N-(4-methyl-1-((4-methyl-3-(1-methyl-7-((6-methylpyridin-3-yl)amino)-2-oxo-1,4-dihydropyrimido[4,5-d]pyrimidin-3(2H)-yl)phenyl)amino)-1-oxopentan-2-yl)-4-nitrobenzamide] | > 600 nM | 1 to 200 nM |  |  | > 600 nM |  |
| Cc1ccc(Nc2ncc3c(n2)N(C)C(=O)N(c2cc(NC(=O)CNC(=O)c4ccc([N+](=O)[O-])c(OCC(C)C)c4)ccc2C)C3)cn1 [Example 52, 3-isobutoxy-N-(2-((4-methyl-3-(1-methyl-7-((6-methylpyridin-3-yl)amino)-2-oxo-1,4-dihydropyrimido[4,5-d]pyrimidin-3(2H)-yl)phenyl)amino)-2-oxoethyl)-4-nitrobenzamide] | 400 to 600 nM | 1 to 200 nM |  |  | > 600 nM |  |
| Cc1ccc(Nc2ncc3c(n2)N(C)C(=O)N(c2cc(NC(=O)[C@@H]4CN(C(=O)OCC(Cl)(Cl)Cl)C[C@H]4C(=O)NCc4ccc(Cl)cc4)ccc2C)C3)cn1 [Example 57, 2,2,2-trichloroethyl (3S,4S)-3-((4-chlorobenzyl)carbamoyl)-4-((4-methyl-3-(1-methyl-7-((6-methylpyridin-3-yl)amino)-2-oxo-1,4-dihydropyrimido[4,5-d]pyrimidin-3(2H)-yl)phenyl)carbamoyl)pyrrolidine-1-carboxylate] | 1 to 200 nM | 1 to 200 nM | 1 to 200 nM | 1 to 200 nM |  |  |
| Cc1ccc(Nc2ncc3c(n2)N(C)C(=O)N(c2cc(C(=O)N[C@H](C(=O)N4CCC[C@@H]4C(=O)NC(C)(C)C(=O)N[C@@H](CC(C)C)C(=O)N(C)C)C(C)C)ccc2C)C3)cn1 [Example 2, (R)—N-(1-(((S)-1-(dimethylamino)-4-methyl-1-oxopentan-2-yl)amino)-2-methyl-1-oxopropan-2-yl)-1-((4-methyl-3-(1-methyl-7-((6-methylpyridin-3-yl)amino)-2-oxo-1,4-dihydropyrimido[4,5-d]pyrimidin-3(2H)-yl)benzoyl)-L-valyl)pyrrolidine-2-carboxamide] (X1-V[dP][Aib]L-NMe2) |  |  |  |  |  | IC50 [4]: 1 to 200 nM; IC50 [5]: 200 to 400 nM; IC50 [1]: > 600 nM; IC50 [2]: 200 to 400 nM; IC50 [3]: > 600 nM |
| Cc1ccc(Nc2ncc3c(n2)N(C)C(=O)N(c2cc(C(=O)N[C@@H](CC(C)C)C(=O)N4CCC[C@H]4C(=O)NC(C)(C)C(=O)N[C@@H](CC(C)C)C(=O)N(C)C)ccc2C)C3)cn1 [Example 20, (S)—N-(1-(((S)-1-(dimethylamino)-4-methyl-1-oxopentan-2-yl)amino)-2-methyl-1-oxopropan-2-yl)-1-((4-methyl-3-(1-methyl-7-((6-methylpyridin-3-yl)amino)-2-oxo-1,4-dihydropyrimido[4,5-d]pyrimidin-3(2H)-yl)benzoyl)-L-lucyl)pyrrolidine-2-carboxamide] (X1-LP[Aib]L-NMe2) |  |  |  |  |  | IC50 [4]: 1 to 200 nM; IC50 [5]: 1 to 200 nM; IC50 [2]: 1 to 200 nM |
| Cc1ccc(Nc2ncc3c(n2)N(C)C(=O)N(c2cc(NC(=O)c4ccc5c(c4)NC(=O)[C@H](C)N=C5c4ccccc4)ccc2C)C3)cn1 [Example 30, (S)-3-methyl-N-(4-methyl-3-(1-methyl-7-((6-methylpyridin-3-yl)amino)-2-oxo-1,4-dihydropyrimido[4,5-d]pyrimidin-3(2H)-yl)phenyl)-2-oxo-5-phenyl-2,3-dihydro-1H-benzo[e][1,4]diazepine-8-carboxamide] | 1 to 200 nM | 1 to 200 nM | 1 to 200 nM | 1 to 200 nM | > 600 nM |  |
| Cc1ccc(Nc2ncc3c(n2)N(C)C(=O)N(c2cc(NC(=O)c4ccc([N+](=O)[O-])c(OCC(C)C)c4)ccc2C)C3)cn1 [Example 49, 3-isobutoxy-N-(4-methyl-3-(1-methyl-7-((6-methylpyridin-3-yl)amino)-2-oxo-1,4-dihydropyrimido[4,5-d]pyrimidin-3(2H)-yl)phenyl)-4-nitrobenzamide] | 1 to 200 nM | 1 to 200 nM |  |  | > 600 nM |  |
| Cc1ccc(Nc2ncc3c(n2)N(C)C(=O)N(c2cc(C(=O)N4C[C@@H](C(=O)NCc5ccccc5)[C@H](C(=O)NCc5ccc(Cl)cc5)C4)ccc2C)C3)cn1 [Example 47, (3S,4S)—N^3-benzyl-N^4-(4-chlorobenzyl)-1-(4-methyl-3-(1-methyl-7-((6-methylpyridin-3-yl)amino)-2-oxo-1,4-dihydropyrimido[4,5-d]pyrimidin-3(2H)-yl)benzoyl)pyrrolidine-3,4-dicarboxamide] | 1 to 200 nM | 1 to 200 nM | 1 to 200 nM | 1 to 200 nM |  |  |
| Cc1ccc(Nc2ncc3c(n2)N(C)C(=O)N(c2cc(NC(=O)[C@H](C)NC(=O)c4ccc([N+](=O)[O-])c(OCC(C)C)c4)ccc2C)C3)cn1 [Example 53, (S)-3-isobutoxy-N-(1-((4-methyl-3-(1-methyl-7-((6-methylpyridin-3-yl)amino)-2-oxo-1,4-dihydropyrimido[4,5-d]pyrimidin-3(2H)-yl)phenyl)amino)-2-oxopropan-2-yl)-4-nitrobenzamide] | > 600 nM | > 600 nM |  |  |  |  |
| Cc1ccc(Nc2ncc3c(n2)N(C)C(=O)N(c2cc(C(=O)N[C@H](C(=O)N4CCC[C@H]4C(=O)NC(C)(C)C(=O)N[C@@H](CC(C)C)C(=O)N(C)C)C4CCCCC4)ccc2C)C3)cn1 [Example 19, (S)-1-((S)-2-cyclohexyl-2-((4-methyl-3-(1-methyl-7-((6-methylpyridin-3-yl)amino)-2-oxo-1,4-dihydropyrimido[4,5-d]pyrimidin-3(2H)-yl)benzamido)acetyl)-N-(1-(((S)-1-dimethylamino)-4-methyl-1-oxopentan-2-yl)amino)-2-methyl-1-oxopropan-2-yl]pyrrolidine-2-carboxamide] (X1-[Chg]P[Aib]L-NMe2) |  |  |  |  |  | IC50 [4]: 1 to 200 nM; IC50 [5]: 400 to 600 nM; IC50 [2]: 200 to 400 nM |
| CCC[C@H](NC(=O)c1ccc(C)c(N2Cc3cnc(Nc4ccc(C)nc4)nc3N(C)C2=O)c1)C(=O)N1CCC[C@H]1C(=O)NC(C)(C)C(=O)N[C@@H](CC(C)C)C(=O)N(C)C [Example 21, (S)—N-(1-(((S)-1-(dimethylamino)-4-methyl-1-oxopentan-2-yl)amino)-2-methyl-1-oxopropan-2-yl)-1-((S)-2-(4-methyl-3-(1-methyl-7-((6-methylpyridin-3-yl)amino)-2-oxo-1,4-dihydropyrimido[4,5-d]pyrimidin-3(2H)-yl)benzamido)pentanoyl)pyrrolidine-2-carboxamide] (X1-[Nva]P[Aib]L-NMe2) |  |  |  |  |  | IC50 [4]: 1 to 200 nM; IC50 [5]: 400 to 600 nM; IC50 [2]: 1 to 200 nM |

Continued, in another order:

| IC50 ([1]; read-out: p38a/MAPK14 IC50) | IC50 ([2]; read-out: ABL1 IC50) | IC50 ([4]; read-out: LCK IC50) | IC50 ([5]; read-out: c-Src IC50) | SMILES | IC50 ([3]; read-out: ABL1 (T315I) IC50) | also measured |
| --- | --- | --- | --- | --- | --- | --- |
| 200 to 400 nM | 1 to 200 nM | 1 to 200 nM | 1 to 200 nM | CC[C@@H](C)[C@H]1N=C(c2ccccc2)c2ccc(C(=O)Nc3ccc(C)c(N4Cc5cnc(Nc6ccc(C)nc6)nc5N(C)C4=O)c3)cc2NC1=O [Example 32, (R)-3-((R)-sec-butyl)-N-(4-methyl-3-(1-methyl-7-((6-methylpyridin-3-yl)amino)-2-oxo-1,4-dihydropyrimido[4,5-d]pyrimidin-3(2H)-yl)phenyl)-2-oxo-5-phenyl-2,3-dihydro-1H-benzo[e][1,4]diazepine-8-carboxamide] | > 600 nM |  |
| 200 to 400 nM | 1 to 200 nM |  |  | Cc1ccc(Nc2ncc3c(n2)N(C)C(=O)N(c2cc(NC(=O)c4ccc([N+](=O)[O-])c(OCCc5c[nH]c6ccccc56)c4)ccc2C)C3)cn1 [Example 50, 3-(2-(1H-indol-3-yl)ethoxy)-N-(4-methyl-3-(1-methyl-7-((6-methylpyridin-3-yl)amino)-2-oxo-1,4-dihydropyrimido[4,5-d]pyrimidin-3(2H)-yl)phenyl)-4-nitrobenzamide] |  |  |
| > 600 nM | 1 to 200 nM | 1 to 200 nM | 1 to 200 nM | Cc1ccc(Nc2ncc3c(n2)N(C)C(=O)N(c2cc(NC(=O)c4ccc5c(c4)NC(=O)[C@H](Cc4ccccc4)N=C5c4ccccc4)ccc2C)C3)cn1 [Example 26, (S)-3-benzyl-N-(4-methyl-3-(1-methyl-7-((6-methylpyridin-3-yl)amino)-2-oxo-1,4-dihydropyrimido[4,5-d]pyrimidin-3(2H)-yl)phenyl)-2-oxo-5-phenyl-2,3-dihydro-1H-benzo[e][1,4]diazepine-8-carboxamide] | > 600 nM |  |
| > 600 nM | 1 to 200 nM |  |  | COc1ccc(CCOc2cc(C(=O)N[C@@H](C)C(=O)Nc3ccc(C)c(N4Cc5cnc(Nc6ccc(C)nc6)nc5N(C)C4=O)c3)ccc2[N+](=O)[O-])cc1 [Example 56] |  |  |
| 400 to 600 nM | 1 to 200 nM | 1 to 200 nM | 1 to 200 nM | Cc1ccc(Nc2ncc3c(n2)N(C)C(=O)N(c2cc(C(=O)N4C[C@@H](C(=O)NCCc5c[nH]c6ccccc56)[C@H](C(=O)NCc5ccc(Cl)cc5)C4)ccc2C)C3)cn1 [Example 48, (3S,4S)—N^3-(2-(1H-indol-3-yl)ethyl)-N^4-(4-chlorobenzyl)-1-(4-methyl-3-(1-methyl-7-((6-methylpyridin-3-yl)amino)-2-oxo-1,4-dihydropyrimido[4,5-d]pyrimidin-3(2H)-yl)benzoyl)pyrrolidine-3,4-dicarboxamide] |  |  |
| 1 to 200 nM | 1 to 200 nM | 1 to 200 nM |  | COc1ccc(CCOc2cc(C(=O)Nc3ccc(C)c(N4Cc5cnc(Nc6ccc(C)nc6)nc5N(C)C4=O)c3)ccc2[N+](=O)[O-])cc1 [Example 51, 3-(4-methoxyphenethoxy)-N-(4-methyl-3-(1-methyl-7-((6-methylpyridin-3-yl)amino)-2-oxo-1,4-dihydropyrimido[4,5-d]pyrimidin-3(2H)-yl)phenyl)-4-nitrobenzamide] |  |  |

From patent publication US11530221B2, “Pyrimido[4,5-d]pyrimidin-2-one derivatives as protein kinase inhibitors” (KOREA INSTITUTE OF SCIENCE AND TECHNOLOGY, priority 2019, dated 2022)
